Test results taken from patent US9408850B2, “Substituted indazole derivatives active as kinase inhibitors” (NERVIANO MEDICAL SCIENCES S.R.L., priority 2011, dated 2016).
pIC50: −log10 of the molar value. Counter-ions that a name gives are not always drawn.

What was measured:
[1] = biological target: KIT cytoplasmic domain (GST fused protein) (Homo sapiens (Human), UniProt P10721); assay: Biochemical assay for inhibitors of KIT kinase activity; conditions: 4 nM pre activated enzyme, 4.4 microM ATP, 60 minutes at r.t.
Experimental: KIT cytoplasmic domain (aa 544-976end of the 976 aminoacid long full length sequence, accession number P10721 of UniProtKB/Swiss-Prot database) was cloned into pVL vector for expression in insect cells through the baculovirus system. The GST-KIT cytoplasmic domain has been expressed in Sf21 cells infected for 66 hrs at 27° C. The recombinant protein has been purified by affinity on GSH-sepharose and eluted with glutathione. […] General Principle-A specific peptidic substrate was trans-phosphorylated by the kinase in the presence of ATP traced with 33Pγ-ATP. At the end of the phosphorylation reaction, the not reacted ATP, cold and radioactive, was captured by an excess of dowex ion exchange resin that eventually settled by gravity to the bottom of the reaction plate. The supernatant was subsequently withdrawn and transferred into a counting plate that was then evaluated by β-counting. • ii. Dowex resin preparation-500 g of wet resin (SIGMA, custom prepared resin DOWEX 1×8 200-400 mesh, 2.5 Kg) were weighed out and diluted to 2 L in 150 mM sodium formate, pH 3.00. The resin was allowed to settle down overnight and then the supernatant was discarded. After three washes as above over a couple of days, the resin was allowed to settle and two volumes (with respect to the resin volume) were added of 150 mM sodium formate buffer. Biochemical Assay for Inhibitors of FLT3 Kinase Activity • i. Enzyme-The assay was performed using FLT3 cytoplasmic domain product and purified in house as GST fused protein. […] The peptide was purchased from American Peptide Company (Sunnyvale, Calif.). Biochemical Assay for Inhibitors of KIT Kinase Activity • i. Enzyme-The assay has been performed using KIT cytoplasmic domain product and purified in house as GST fused protein. […] NO: 2). The peptide was purchased from American Peptide Company (Sunnyvale, Calif.). Compound Testing • i. […] An automated station for serial dilutions (Biomek FX, Beckman) was used for producing 1:3 dilutions in 100% DMSO, from line A1 to A10, and for all the compounds in the column. […] The following dispensation into the plates plus 3 cycles of mixing, done by the robot itself, started the kinase reaction. At this point, the correct concentrations were restored for all the reagents. The robot incubated the plates for 60 minutes at r.t., and then stopped the reaction by pipetting 60 microL of dowex resin suspension into the reaction mix. In order to avoid tip clogging, wide bore tips were used to dispense the resin suspension. Three cycles of mixing were done immediately after the addition of the resin. Another mixing cycle was performed after all the plates were stopped, this time using normal tips: the plates were then allowed to rest for about one hour in order to allow resin sedimentation. […] Data Fitting-Data were analyzed by an internally customized version of the SW package “Assay Explorer” that provided sigmoidal fitting of the ten-dilutions curves for IC50 determination in the secondary assays/hit confirmation routines. Cell-Based Assays for Inhibitors of FLT3 Kinase Activity In vitro Cell Proliferation Assay for Inhibitors of FLT3 Kinase Activity

[2] = tested on: MV-4-11 cells, bearing a FLT3-ITD mutation; assay: In vitro cell proliferation assay (CellTiter-Glo), MV-4-11; assay type: cell-based; conditions: Homo sapiens, MV4-11, MV-4-11, 72 h
Experimental: (§1) The human acute leukemia MOLM-13 AND MV-4-11 cells, bearing a FLT3-ITD mutation, were seeded (5000 cells/well) in white 384 well-plates in complete medium (RPMI 1640 plus 10% Fetal bovine serum) and treated with compounds dissolved in 0.1% DMSO, 24 h after seeding. The cells were incubated at 37° C. and 5% CO2 and after 72 h the plates were processed using CellTiter-Glo assay (Promega) following the manufacturer's instruction.
(§2) CellTiter-Glo is a homogenous method based on the quantification of the ATP present, an indicator of metabolitically active cells. ATP was quantified using a system based on luciferase and D-luciferin resultant into light generation. The luminescent signal was proportional to the number of cells present in culture.
(§3) Briefly, 25 microL/well reagent solution were added to each well and, after 5 minutes shaking, microplates were read by Envision (PerkinElmer) luminometer. Inhibitory activity was evaluated comparing treated versus control data using Symyx Assay Explorer (Symyx Technologies Inc.) program. IC50 was calculated using sigmoidal interpolation curve.

[3] = tested on: MOLM-13 cells, bearing a FLT3-ITD mutation; assay: In vitro cell proliferation assay (CellTiter-Glo), MOLM-13; assay type: cell-based; conditions: Homo sapiens, MOLM-13, 72 h
Experimental: as §1, §2, §3

[4] = biological target: FLT3 cytoplasmic domain (GST fused protein) (Homo sapiens (Human), UniProt P36888); assay: Biochemical assay for inhibitors of FLT3 kinase activity; conditions: 2 nM pre activated enzyme, 254 microM ATP, 60 minutes at r.t.
Experimental: FLT3 cytoplasmic domain (aa 564-993end of the 993 aminoacid long full length sequence, accession number P36888 of UniProtKB/Swiss-Prot. database) was amplified by PCR starting from a testis cDNA library and then cloned into pVL vector for expression in insect cells through the baculovirus system. The GST-FLT3 cytoplasmic domain has been expressed in Sf21 cells infected for 72 hours at 27° C. The recombinant protein has been purified by affinity on GSH-sepharose and eluted with glutathione. A further purification step has been performed on heparine sepharose. […] General Principle-A specific peptidic substrate was trans-phosphorylated by the kinase in the presence of ATP traced with 33Pγ-ATP. At the end of the phosphorylation reaction, the not reacted ATP, cold and radioactive, was captured by an excess of dowex ion exchange resin that eventually settled by gravity to the bottom of the reaction plate. The supernatant was subsequently withdrawn and transferred into a counting plate that was then evaluated by β-counting. • ii. Dowex resin preparation-500 g of wet resin (SIGMA, custom prepared resin DOWEX 1×8 200-400 mesh, 2.5 Kg) were weighed out and diluted to 2 L in 150 mM sodium formate, pH 3.00. The resin was allowed to settle down overnight and then the supernatant was discarded. After three washes as above over a couple of days, the resin was allowed to settle and two volumes (with respect to the resin volume) were added of 150 mM sodium formate buffer. Biochemical Assay for Inhibitors of FLT3 Kinase Activity • i. Enzyme-The assay was performed using FLT3 cytoplasmic domain product and purified in house as GST fused protein. […] NO: 1). The peptide was purchased from American Peptide Company (Sunnyvale, Calif.). Biochemical Assay for Inhibitors of KIT Kinase Activity • i. Enzyme-The assay has been performed using KIT cytoplasmic domain product and purified in house as GST fused protein. […] NO: 2). The peptide was purchased from American Peptide Company (Sunnyvale, Calif.). Compound Testing • i. […] An automated station for serial dilutions (Biomek FX, Beckman) was used for producing 1:3 dilutions in 100% DMSO, from line A1 to A10, and for all the compounds in the column. […] The following dispensation into the plates plus 3 cycles of mixing, done by the robot itself, started the kinase reaction. At this point, the correct concentrations were restored for all the reagents. The robot incubated the plates for 60 minutes at r.t., and then stopped the reaction by pipetting 60 microL of dowex resin suspension into the reaction mix. In order to avoid tip clogging, wide bore tips were used to dispense the resin suspension. Three cycles of mixing were done immediately after the addition of the resin. Another mixing cycle was performed after all the plates were stopped, this time using normal tips: the plates were then allowed to rest for about one hour in order to allow resin sedimentation. […] Data Fitting-Data were analyzed by an internally customized version of the SW package “Assay Explorer” that provided sigmoidal fitting of the ten-dilutions curves for IC50 determination in the secondary assays/hit confirmation routines. Cell-Based Assays for Inhibitors of FLT3 Kinase Activity In vitro Cell Proliferation Assay for Inhibitors of FLT3 Kinase Activity

KIT cytoplasmic domain (GST fused protein), sequence (P10721 544-976): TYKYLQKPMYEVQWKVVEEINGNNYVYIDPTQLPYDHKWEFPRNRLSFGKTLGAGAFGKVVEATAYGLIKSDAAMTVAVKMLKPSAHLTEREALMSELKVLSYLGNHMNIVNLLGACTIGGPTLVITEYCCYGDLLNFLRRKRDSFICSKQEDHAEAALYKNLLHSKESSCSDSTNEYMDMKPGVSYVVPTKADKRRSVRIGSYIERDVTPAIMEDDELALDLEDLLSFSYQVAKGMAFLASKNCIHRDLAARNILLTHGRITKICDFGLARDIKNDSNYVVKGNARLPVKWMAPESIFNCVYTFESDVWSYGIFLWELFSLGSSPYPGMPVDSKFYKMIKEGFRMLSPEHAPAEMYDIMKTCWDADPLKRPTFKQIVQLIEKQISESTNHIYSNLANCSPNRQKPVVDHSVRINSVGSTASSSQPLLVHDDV
FLT3 cytoplasmic domain (GST fused protein), sequence (P36888 564-993): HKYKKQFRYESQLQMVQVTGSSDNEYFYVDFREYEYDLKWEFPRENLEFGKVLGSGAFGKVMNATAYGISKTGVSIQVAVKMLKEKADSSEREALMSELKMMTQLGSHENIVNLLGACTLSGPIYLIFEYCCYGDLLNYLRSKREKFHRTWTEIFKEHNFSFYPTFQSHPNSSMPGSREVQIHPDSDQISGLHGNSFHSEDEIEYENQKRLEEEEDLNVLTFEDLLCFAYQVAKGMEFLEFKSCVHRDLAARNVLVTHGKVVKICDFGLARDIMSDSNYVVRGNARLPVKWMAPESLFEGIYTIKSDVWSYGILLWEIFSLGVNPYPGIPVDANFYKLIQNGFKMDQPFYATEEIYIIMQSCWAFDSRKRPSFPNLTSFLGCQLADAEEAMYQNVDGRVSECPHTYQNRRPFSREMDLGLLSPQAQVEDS

| SMILES | pIC50 [1] | pIC50 [4] | pIC50 [2] | pIC50 [3] |
| --- | --- | --- | --- | --- |
| O=C(Nc1n[nH]c2cc(OCCOCc3ccccc3)ccc12)c1ccc(N2CCNCC2)cc1 [Cpd. 20, N-[6-(2-Benzyloxy-ethoxy)-1H-indazol-3-yl]-4-piperazin-1-yl-benzamide] | 7.28 | > 7.30 | > 7.30 | > 7.30 |
| CN(C)Cc1ccc(C(=O)Nc2n[nH]c3cc(OCCOCc4ccccc4)ccc23)cc1 [Cpd. 21, N-[6-(2-Benzyloxy-ethoxy)-1H-indazol-3-yl]-4-dimethylaminomethyl-benzamide] | 6.87 | 6.98 | > 7.30 | – |
| O=C(Nc1n[nH]c2cc(OCCOCc3ccccc3)ccc12)c1ccc(N2CCOCC2)cc1 [Cpd. 24, N-[6-(2-Benzyloxy-ethoxy)-1H-indazol-3-yl]-4-morpholin-4-yl-benzamide] | 6.59 | 6.79 | > 7.30 | > 7.30 |
| O=C(Nc1n[nH]c2cc(OCCOCc3ccccc3)ccc12)c1ccc(NC2CCOCC2)cc1 [Cpd. 26, N-[6-(2-Benzyloxy-ethoxy)-1H-indazol-3-yl]-4-(tetrahydro-pyran-4-ylamino)-benzamide] | 6.91 | 7.05 | > 7.30 | > 7.30 |
| CN1CCN(c2ccc(C(=O)Nc3n[nH]c4cc(OCCOCc5ccccc5F)ccc34)cc2)CC1 [Cpd. 30, N-{6-[2-(2-Fluoro-benzyloxy)-ethoxy]-1H-indazol-3-yl}-4-(4-methyl-piperazin-1-yl)-benzamide] | 5.85 | 6.78 | > 7.30 | > 7.30 |
| CN1CCN(c2ccc(C(=O)Nc3n[nH]c4cc(OCCOCc5ccncc5)ccc34)cc2)CC1 [Cpd. 35, 4-(4-Methyl-piperazin-1-yl)-N-{6-[2-(pyridin-4-ylmethoxy)-ethoxy]-1H-indazol-3-yl}-benzamide] | 5.63 | 5.93 | > 7.30 | > 7.30 |
| CN1CCN(c2ccc(C(=O)Nc3n[nH]c4cc(OCCOCc5ccccc5)ccc34)c(F)c2)CC1 [Cpd. 38, N-[6-(2-Benzyloxy-ethoxy)-1H-indazol-3-yl]-2-fluoro-4-(4-methyl-piperazin-1-yl)-benzamide] | 6.21 | 6.27 | – | – |
| CN1CCN(c2ccc(C(=O)Nc3n[nH]c4cc(OC/C=C/c5ccccc5)ccc34)cc2)CC1 [Cpd. 39, 4-(4-Methyl-piperazin-1-yl)-N-[6-((E)-3-phenyl-allyloxy)-1H-indazol-3-yl]-benzamide] | 6.28 | 7.21 | – | – |
| CN(c1ccc(C(=O)Nc2n[nH]c3cc(OCCOCc4ccccc4)ccc23)cc1)C1CC[N+](C)([O-])CC1 (stereo not shown) [Cpd. 41, N-[6-(2-Benzyloxy-ethoxy)-1H-indazol-3-yl]-4-[methyl-(1-methyl-1-oxy-piperidin-4-yl)-amino]-benzamide] | 6.74 | 7.28 | > 7.30 | > 7.30 |
| CN(C)c1ccc(C(=O)Nc2n[nH]c3cc(OCc4ccccc4)ccc23)cc1 [Ref. Compound, reference compound] | < 5.00 | 5.50 | – | – |

Continued, in another order:

| pIC50 [1] | pIC50 [4] | SMILES | pIC50 [2] | pIC50 [3] |
| --- | --- | --- | --- | --- |
| > 7.30 | > 7.30 | CN1CCN(c2ccc(C(=O)Nc3n[nH]c4cc(OCCOCc5ccc(F)cc5)ccc34)cc2)CC1 [Cpd. 32, N-{6-[2-(4-Fluoro-benzyloxy)-ethoxy]-1H-indazol-3-yl}-4-(4-methyl-piperazin-1-yl)-benzamide] | – | – |
| > 7.30 | > 7.30 | CN1CCN(c2ccc(C(=O)Nc3n[nH]c4cc(OCCOCc5ccc(C(F)(F)F)cc5)ccc34)cc2)CC1 [Cpd. 33, 4-(4-Methyl-piperazin-1-yl)-N-{6-[2-(4-trifluoromethyl-benzyloxy)-ethoxy]-1H-indazol-3-yl}-benzamide] | – | – |
| 7.24 | 7.25 | CN1CCN(c2ccc(C(=O)Nc3n[nH]c4cc(OCCOCc5cccc(C(F)(F)F)c5)ccc34)cc2)CC1 [Cpd. 34, 4-(4-Methyl-piperazin-1-yl)-N-{6-[2-(3-trifluoromethyl-benzyloxy)-ethoxy]-1H-indazol-3-yl}-benzamide] | – | – |
| 7.06 | > 7.30 | COc1ccc(COCCOc2ccc3c(NC(=O)c4ccc(N5CCN(C)CC5)cc4)n[nH]c3c2)cc1 [Cpd. 40, N-{6-[2-(4-Methoxy-benzyloxy)-ethoxy]-1H-indazol-3-yl}-4-(4-methyl-piperazin-1-yl)-benzamide] | – | – |
| 7.26 | > 7.30 | C[N+]1([O-])CCN(c2ccc(C(=O)Nc3n[nH]c4cc(OCCOCc5ccc(C(F)(F)F)cc5)ccc34)cc2)CC1 [Cpd. 42, 4-(4-Methyl-4-oxy-piperazin-1-yl)-N-{6-[2-(4-trifluoromethyl-benzyloxy)-ethoxy]-1H-indazol-3-yl}-benzamide hydrochloride] | – | – |
